The values that follow are results of earlier work, collected in patent US20180103657A1, “FROZEN CONFECTION” (Conopco, Inc., d/b/a UNILEVER, priority 2015, published 2018).

The conditions of this data set: partition coefficient at 20 degrees centigrade.

Turning to `CCCC(=O)OCC` [Ethyl butyrate], the “Log P [flavour compounds]” value is given as 1.8.
